The results in this text go back to ChEMBL document CHEMBL1201862, “PubChem BioAssay data set” (2004).

Test systems include A549; OVCAR-4; HCT-15; SR; K562; M14; LOX IMVI; NCI-H226; U-251; SN12C; DMS-273; SNB-75; UACC-257; OVCAR-5; KM12; SNB-19; SK-MEL-2; SW-620.
What all share (assay): growth of human tumour cells (NCI), 48 h

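Cells were grown in 96-well plates and exposed to each compound for 48 hours at five concentrations; endpoints were interpolated linearly between bracketing concentrations, or set to the highest concentration if not reached. The concentration for 50% growth inhibition is given as GI50.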 Activity calls are given as the source filed them. Cut-off read from the data, not from the text of the source: active = GI50 up to about 1.1 µM and inactive = higher.

For `Cn1cc/c(=N\N=c2/ccn(C)c3ccccc23)c2ccccc21`, the GI50 in the experiment with A549 is 15.7 µM (inactive); in the experiment with OVCAR-4, 12.7 µM (inactive); in the experiment on HCT-15 it was 15.8 µM; in the experiment with SR it was 16.4 µM (inactive); in the experiment with K562, 4.44 µM (inactive); in the experiment on M14, 16.9 µM (inactive). Moreover, the GI50 in the experiment on LOX IMVI was 11.9 µM (inactive); in the experiment on NCI-H226, 11.7 µM (inactive); with U-251, 15.7 µM (inactive); in the experiment with SN12C, 16.9 µM (inactive); in the experiment with DMS-273, 16.4 µM (inactive); with SNB-75, 24.1 µM (inactive). In addition, the GI50 was 13.9 µM (inactive) in the experiment with UACC-257, 15.8 µM (inactive) with OVCAR-5, 13 µM (inactive) in the experiment with KM12 and 16.9 µM (inactive) with SNB-19.

In the case of `CCOC(=O)C(C)c1c(C(=O)c2ccc(C)nc2)c2ccccc2n1C` (configuration not stated), the GI50 was > 100 µM (inactive) in the experiment with A549; > 100 µM (inactive) with OVCAR-4; above 100 µM in the experiment on HCT-15; > 100 µM (inactive) with K562; > 100 µM (inactive) in the experiment on M14; > 100 µM (inactive) with LOX IMVI. The GI50 was > 100 µM (inactive) in the experiment on SN12C; 82.8 µM (inactive) in the experiment with SK-MEL-2; > 100 µM (inactive) in the experiment on SW-620; > 100 µM (inactive) with DMS-273; 33.3 µM (inactive) in the experiment on SNB-75; > 100 µM (inactive) in the experiment with UACC-257. For the same molecule, the GI50 in the experiment with OVCAR-5 and with KM12 was > 100 µM (inactive) each time.

`Cc1nc([N+](=O)[O-])cn1CC(=N)N`: the GI50 is > 100 µM (inactive) in the experiment with A549; > 100 µM (inactive) in the experiment with OVCAR-4; above 100 µM with HCT-15; > 100 µM (inactive) in the experiment on SR; > 100 µM (inactive) with K562; > 100 µM (inactive) in the experiment on M14. Also, the GI50 in the experiment with LOX IMVI, in the experiment on NCI-H226, with U-251, in the experiment with SN12C, in the experiment with SK-MEL-2 and in the experiment with SW-620 was > 100 µM (inactive) throughout. Moreover, the GI50 in the experiment on DMS-273 was > 100 µM (inactive); with SNB-75, 20.8 µM (inactive); in the experiment with UACC-257, > 100 µM (inactive); with SNB-19 it was > 100 µM (inactive).

Regarding `Cc1cc(N(CCC#N)CCC#N)ccc1/N=N/c1ccc(S(N)(=O)=O)cc1`, the GI50 was > 100 µM (inactive) in the experiment with A549; > 100 µM (inactive) in the experiment on OVCAR-4; above 100 µM in the experiment on HCT-15; > 100 µM (inactive) in the experiment with K562; > 100 µM (inactive) in the experiment on M14; > 100 µM (inactive) with LOX IMVI. Moreover, the GI50 with NCI-H226, in the experiment with U-251, in the experiment with SN12C, in the experiment with SK-MEL-2, in the experiment on SW-620 and in the experiment with DMS-273 was > 100 µM (inactive) in each case. The GI50 in the experiment with SNB-75, with UACC-257, with OVCAR-5, with KM12 and in the experiment on SNB-19 was > 100 µM (inactive) in each case.

`Cc1ccc(S(=O)(=O)OCOS(=O)(=O)c2ccc(C)cc2)cc1`: the GI50 in the experiment with A549 is > 100 µM (inactive); in the experiment with HCT-15 it was above 100 µM; in the experiment with SR, > 100 µM (inactive); with K562 it was > 100 µM (inactive); in the experiment with M14, > 100 µM (inactive); in the experiment with LOX IMVI, > 100 µM (inactive). Further, the GI50 with U-251, with SN12C, in the experiment on SK-MEL-2, in the experiment with SW-620, in the experiment with DMS-273 and in the experiment with UACC-257 was > 100 µM (inactive) in each case. The GI50 with OVCAR-5, in the experiment on KM12 and in the experiment with SNB-19 was > 100 µM (inactive) each time.

As to `CCOC(=O)C1=C(NC)OC/C1=N\NC(=O)c1ccccc1O`, the GI50 was 32.1 µM (inactive) in the experiment with A549; 16.3 µM (inactive) in the experiment on OVCAR-4; 18.6 µM (inactive) in the experiment on K562; 22.5 µM (inactive) with M14; 15.2 µM (inactive) in the experiment on LOX IMVI; 13.3 µM (inactive) in the experiment with NCI-H226. For the same molecule, the GI50 with U-251 was 19.3 µM (inactive); in the experiment on SN12C it was 45.9 µM (inactive); in the experiment on SK-MEL-2, 12.8 µM (inactive); with SW-620 it was 31.8 µM (inactive); in the experiment on DMS-273, 23.1 µM (inactive); in the experiment with SNB-75 it was 69.3 µM (inactive). The GI50 in the experiment with UACC-257 is 1.49 µM (inactive); in the experiment with OVCAR-5, 48.3 µM (inactive); in the experiment on KM12, 53.2 µM (inactive); with SNB-19 it was 12.7 µM (inactive).

For `COc1ccc(OC(=O)CC2Cc3cc(OC)c(OC)c(OC)c3-c3ccc(SC)c(=O)cc32)cc1` (configuration not stated), the GI50 in the experiment with A549 was 0.762 µM (active); in the experiment with OVCAR-4, 11.7 µM (inactive); with HCT-15, 0.467 µM; in the experiment on SR it was 0.463 µM (active); in the experiment with K562 it was 0.0805 µM (active); in the experiment with M14, 0.34 µM (active). Further, the GI50 was 0.172 µM (active) in the experiment with LOX IMVI; 0.216 µM (active) in the experiment with NCI-H226; 0.224 µM (active) in the experiment on U-251; 0.3 µM (active) with SN12C; 2.14 µM (inactive) in the experiment with SK-MEL-2; 0.0783 µM (active) in the experiment with SW-620. Also, the GI50 with DMS-273 is 0.102 µM (active); with SNB-75, 2.52 µM (inactive); in the experiment with UACC-257 it was 0.273 µM (active); in the experiment on KM12 it was 0.107 µM (active); with SNB-19, 0.12 µM (active).

For `CCOC(=O)N1CCc2cc(OC)c(OC)cc2/C1=C/c1ccc(OC)c(OC)c1`, the GI50 is 43.1 µM (inactive) in the experiment on A549; 36.1 µM in the experiment on HCT-15; 34.1 µM (inactive) in the experiment with SR; 35.5 µM (inactive) in the experiment with K562; 82.8 µM (inactive) in the experiment with M14; 52.2 µM (inactive) in the experiment with LOX IMVI. The GI50 with NCI-H226 is 69.5 µM (inactive); in the experiment with U-251 it was 44.5 µM (inactive); in the experiment on SN12C it was 35.6 µM (inactive); with SK-MEL-2, 51.6 µM (inactive); with SW-620, 46.2 µM (inactive); with DMS-273 it was 49.2 µM (inactive). Moreover, the GI50 was 37.9 µM (inactive) with SNB-75; 37.2 µM (inactive) with UACC-257; 94 µM (inactive) with OVCAR-5; 45.3 µM (inactive) with KM12; 58.3 µM (inactive) in the experiment on SNB-19.

On to `CSC(SC)=C1Sc2cccc(Cl)c2S1`, for which the GI50 is > 100 µM (inactive) with A549; 68.4 µM (inactive) in the experiment on OVCAR-4; 48.3 µM with HCT-15; 23.9 µM (inactive) in the experiment on K562; 82 µM (inactive) with M14; 42.6 µM (inactive) in the experiment with LOX IMVI. Further, the GI50 in the experiment on NCI-H226 was > 100 µM (inactive); in the experiment with U-251, 65.2 µM (inactive); with SN12C it was > 100 µM (inactive); in the experiment on SK-MEL-2, 17.9 µM (inactive); with SW-620, 39 µM (inactive); in the experiment on DMS-273, 46.2 µM (inactive). Besides, the GI50 in the experiment on SNB-75 was 65.6 µM (inactive); with UACC-257, > 100 µM (inactive); with OVCAR-5, 45.6 µM (inactive); in the experiment on KM12, 83 µM (inactive); in the experiment on SNB-19 it was 85.1 µM (inactive).

`CCOC(=O)Cc1ccc2c(c1O)C(=O)c1c(ccc(CC(=O)OCC)c1O)C2=O`: the GI50 with A549 was > 100 µM (inactive); in the experiment on SR it was > 100 µM (inactive); with K562, > 100 µM (inactive); with M14 it was > 100 µM (inactive); with LOX IMVI, 27.9 µM (inactive); in the experiment on NCI-H226 it was 43.5 µM (inactive). Moreover, the GI50 with U-251 was 83.8 µM (inactive); with SN12C it was > 100 µM (inactive); in the experiment with SK-MEL-2, > 100 µM (inactive); in the experiment on SW-620, > 100 µM (inactive); in the experiment with DMS-273, > 100 µM (inactive); in the experiment on SNB-75, > 100 µM (inactive). The GI50 with UACC-257, with OVCAR-5, with KM12 and in the experiment with SNB-19 was > 100 µM (inactive) each time.

For the molecule `S=P1(c2ccccc2)Nc2ccc(Cl)cc2N1` (configuration not stated), the GI50 in the experiment on A549 is > 100 µM (inactive); with OVCAR-4, 6.49 µM (inactive); with HCT-15 it was 58.5 µM; with K562 it was 49.3 µM (inactive); in the experiment on M14, 18.5 µM (inactive); with LOX IMVI, > 100 µM (inactive). Also, the GI50 with NCI-H226, in the experiment on U-251, in the experiment on SK-MEL-2, in the experiment with SW-620, in the experiment on DMS-273 and in the experiment on UACC-257 was > 100 µM (inactive) each time. The results for the GI50 with OVCAR-5, with KM12 and with SNB-19 were > 100 µM (inactive), 88.9 µM (inactive) and > 100 µM (inactive), respectively.

As to `Cc1[nH]c2ccccc2c1C1CC(=O)NC1=O` (configuration not stated), the GI50 in the experiment with A549 is > 100 µM (inactive); in the experiment on OVCAR-4 it was > 100 µM (inactive); in the experiment with HCT-15 it was above 100 µM; in the experiment with K562 it was > 100 µM (inactive); in the experiment with M14, > 100 µM (inactive); in the experiment on NCI-H226, > 100 µM (inactive). Further, the GI50 in the experiment on U-251, in the experiment with SK-MEL-2, with SW-620, in the experiment with DMS-273, with SNB-75 and with UACC-257 was > 100 µM (inactive) throughout. The GI50 with OVCAR-5 and with KM12 was > 100 µM (inactive) throughout.

`O=C(O)C1=CCCc2ccc3ccccc3c21`: the GI50 in the experiment on A549 was > 100 µM (inactive); in the experiment with OVCAR-4 it was > 100 µM (inactive); with HCT-15, above 100 µM; with K562, > 100 µM (inactive); with M14, > 100 µM (inactive); in the experiment with LOX IMVI it was > 100 µM (inactive). Also, the GI50 with NCI-H226, in the experiment with U-251, in the experiment with SN12C, in the experiment on SK-MEL-2, in the experiment on SW-620 and in the experiment on DMS-273 was > 100 µM (inactive) in each case. Moreover, the GI50 is 85.3 µM (inactive) with SNB-75; > 100 µM (inactive) in the experiment on UACC-257; > 100 µM (inactive) in the experiment with OVCAR-5; > 100 µM (inactive) in the experiment with KM12; > 100 µM (inactive) in the experiment on SNB-19.
